Target: T1, human 11β-HSD1 (Homo sapiens, UniProt P28845)
T1 construct: host or cells: microsome fraction
Test: Enzymatic 11beta-HSD1 test (SPA-based detection)
Assay type: biochemical
Details: human 11β-HSD1 microsome fraction, [1,2-3H]-cortisone, NADPH, 37° C. 1 hour
Procedure, shortened: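 Human 11β-HSD1 microsomes (0.2 µg protein) converted [1,2-3H]-cortisone ([…]) for 1 h at 37 °C. The reaction buffer was HEPES/KCl/NaCl/MgCl2 with 0.25 mM NADPH, with compounds added in DMSO. The reaction was stopped with SPA beads, anti-cortisol monoclonal antibody and 0.01 mM SSR110887; after 1 h at room temperature, [3H]-cortisol was scintillation-counted.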

T1 sequence (P28845 whole entry): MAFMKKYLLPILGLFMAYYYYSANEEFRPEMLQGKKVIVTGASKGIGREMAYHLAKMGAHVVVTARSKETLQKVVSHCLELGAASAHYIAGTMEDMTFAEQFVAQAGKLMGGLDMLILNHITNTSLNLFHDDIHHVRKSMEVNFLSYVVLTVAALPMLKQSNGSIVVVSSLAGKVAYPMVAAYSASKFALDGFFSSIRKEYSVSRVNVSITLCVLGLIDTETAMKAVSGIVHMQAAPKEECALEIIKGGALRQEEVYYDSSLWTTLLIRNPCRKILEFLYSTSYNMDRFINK

CN1CCN(c2ncc(-c3ccc(C4C(C)(C)OC(N[C@@H](CCO)c5ccccc5F)=NS4(=O)=O)cc3)cn2)CC1 (stereo partly drawn) [Example 125, (S)-3-(6,6-Dimethyl-5-{4-[2-(4-methyl-piperazin-1-yl)-pyrimidin-5-yl]-phenyl}-4,4-dioxo-5,6-dihydro-4H-4lambda6-[1,4,3]oxathiazin-2-ylamino)-3-(2-fluorophenyl)-propan-1-ol]
IC50: 4 nM

CC1(C)OC(N[C@@H](CCO)c2ccccc2)=NS(=O)(=O)C1c1cccc(Cl)c1 (stereo partly drawn) [Example 20, (S)-3-[5-(3-Chloro-phenyl)-6,6-dimethyl-4,4-dioxo-5,6-dihydro-4H-4lambda6-[1,4,3]oxathiazin-2-ylamino]-3-phenyl-propan-1-ol]
IC50: 21 nM

C[C@H](NC1=NS(=O)(=O)C(c2cccc(-c3ccccc3)c2)C(C)(C)O1)c1ccccc1F (stereo partly drawn) [Example 68, (5-Biphenyl-3-yl-6,6-dimethyl-4,4-dioxo-5,6-dihydro-4H-4lambda6-[1,4,3]oxathiazin-2-yl)-[(S)-1-(2-fluorophenyl)-ethyl]-amine]
IC50: 34 nM

CC1(C)OC(NC2CCCCC2)=NS(=O)(=O)C1c1ccccc1 (stereo not drawn) [Example 1, Cyclohexyl-(6,6-dimethyl-4,4-dioxo-5-phenyl-5,6-dihydro-4H-4lambda6-[1,4,3]oxathiazin-2-yl)-amine]
IC50: 113 nM

C[C@H](NC1=NS(=O)(=O)C(c2ccc(-c3ccccc3)cc2)C(C)(C)O1)c1ccccc1F (stereo partly drawn) [Compound 52, (5-Biphenyl-4-yl-6,6-dimethyl-4,4-dioxo-5,6-dihydro-4H-4lambda6-[1,4,3]oxathiazin-2-yl)-[(S)-1-(2-fluorophenyl)ethyl]amine]
IC50: 64 nM

C[C@H](NC1=NS(=O)(=O)[C@@H](c2ccc(-c3cncc(C(N)=O)c3)cc2)C(C)(C)O1)c1ccccc1F [Example 177, 5-(4-{(S)-2-[(S)-1-(2-fluorophenyl)-ethylamino]-6,6-dimethyl-4,4-dioxo-5,6-dihydro-4H-4lambda6-[1,4,3]oxathiazin-5-yl}-phenyl)-nicotinamide]
IC50: 17 nM

COc1ccc(-c2ccc(C3(C)C(C)(C)OC(N[C@@H](CCO)c4ccccc4F)=NS3(=O)=O)cc2)cc1 (stereo partly drawn) [Example 81, (S)-3-(2-Fluorophenyl)-3-[5-(4′-methoxy-biphenyl-4-yl)-5,6,6-trimethyl-4,4-dioxo-5,6-dihydro-4H-4lambda6-[1,4,3]oxathiazin-2-ylamino]-propan-1-ol]
IC50: 10 nM

Cc1ccccc1C1C(C)(C)OC(N[C@@H](CCO)c2ccccc2)=NS1(=O)=O (stereo partly drawn) [Example 16, (S)-3-(6,6-Dimethyl-4,4-dioxo-5-o-tolyl-5,6-dihydro-4H-4lambda6-[1,4,3]oxathiazin-2-ylamino)-3-phenyl-propan-1-ol]
IC50: 11 nM

CC1(C)OC(N[C@@H](CCO)c2ccccc2F)=NS(=O)(=O)C1c1ccc(-c2cc[nH]n2)cc1 (stereo partly drawn) [Example 128, (S)-3-{6,6-Dimethyl-4,4-dioxo-5-[4-(1H-pyrazol-3-yl)-phenyl]-5,6-dihydro-4H-4lambda6-[1,4,3]oxathiazin-2-ylamino}-3-(2-fluorophenyl)-propan-1-ol]
IC50: 10 nM

C[C@H](NC1=NS(=O)(=O)C(c2ccc(-c3ccc(C(N)=O)cc3)cc2)C(C)(C)O1)c1ccccc1F (stereo partly drawn) [Example 157, 4′-{2-[(S)-1-(2-fluorophenyl)-ethylamino]-6,6-dimethyl-4,4-dioxo-5,6-dihydro-4H-4lambda6-[1,4,3]oxathiazin-5-yl}-biphenyl-4-carboxamide]
IC50: 20 nM

CN1CCN(c2ccc(-c3ccc(C4C(C)(C)OC(N[C@@H](CCO)c5ccccc5F)=NS4(=O)=O)cc3)cc2)CC1 (stereo partly drawn) [Example 114]
IC50: 8 nM

CC1(C)OC(N[C@@H](CCO)c2ccccc2F)=NS(=O)(=O)C1c1ccc(N2CCN(CCO)CC2)cc1 (stereo partly drawn) [Example 135]
IC50: 59 nM

CC1(C)OC(N[C@@H](CCO)c2ccccc2)=NS(=O)(=O)C1c1cccc(C(F)(F)F)c1 (stereo partly drawn) [Compound 21, (S)-3-[6,6-Dimethyl-4,4-dioxo-5-(3-trifluoromethylphenyl)-5,6-dihydro-4H-4lambda6-[1,4,3]oxathiazin-2-ylamino]-3-phenylpropan-1-ol]
IC50: 22 nM

CN1CCN(c2ccc(C3C(C)(C)OC(N[C@@H](CCO)c4ccccc4F)=NS3(=O)=O)cc2)CC1 (stereo partly drawn) [Example 109]
IC50: 79 nM

O=S1(=O)N=C(N[C@@H](CCO)c2ccccc2F)OC2(CCC2)C1c1ccc(-c2ccccc2)cc1 (stereo partly drawn) [Example 77, (S)-3-(9-Biphenyl-4-yl-8,8-dioxo-5-oxa-8lambda6-thia-7-aza-spiro[3.5]non-6-en-6-ylamino)-3-(2-fluorophenyl)-propan-1-ol]
IC50: 26 nM

C[C@H](NC1=NS(=O)(=O)C(c2ccccc2)C(C)(C)O1)c1ccccc1F (stereo partly drawn) [Example 31, (6,6-Dimethyl-4,4-dioxo-5-phenyl-5,6-dihydro-4H-4lambda6-[1,4,3]oxathiazin-2-yl)-[(S)-1-(2-fluoro-phenyl)-ethyl]-amine]
IC50: 10 nM

CC1(C)OC(N[C@@H](CCO)c2ccccc2F)=NS(=O)(=O)C1(C)c1cccc(-c2cncnc2)c1 (stereo partly drawn) [Example 46, (S)-3-(2-Fluorophenyl)-3-[5,6,6-trimethyl-4,4-dioxo-5-(3-pyrimidin-5-yl-phenyl)-5,6-dihydro-4H-4lambda6-[1,4,3]oxathiazin-2-ylamino]-propan-1-ol]
IC50: 18 nM

CC(C)(C)c1ccc(C2C(C)(C)OC(N[C@@H](CCO)c3ccccc3F)=NS2(=O)=O)cc1 (single isomer, unassigned) [Example 84]
IC50: 15 nM

COc1ncc(-c2ccc(C3C(C)(C)OC(N[C@@H](CCO)c4ccccc4F)=NS3(=O)=O)cc2)cn1 (stereo partly drawn) [Example 139, (S)-3-(2-fluorophenyl)-3-{5-[4-(2-methoxy-pyrimidin-5-yl)-phenyl]-6,6-dimethyl-4,4-dioxo-5,6-dihydro-4H-4lambda6-[1,4,3]oxathiazin-2-ylamino}-propan-1-ol]
IC50: 5 nM

CC1(C)OC(N[C@@H](CCO)c2ccccc2F)=NS(=O)(=O)C1c1ccc(CCCN)cc1 (stereo partly drawn) [Example 106, (5)-3-{5-[4-(3-Amino-propyl)-phenyl]-6,6-dimethyl-4,4-dioxo-5,6-dihydro-4H-4lambda6-[1,4,3]oxathiazin-2-ylamino}-3-(2-fluorophenyl)-propan-1-ol]
IC50: 26 nM

CC1(C)OC(N[C@@H](CCO)c2ccccc2F)=NS(=O)(=O)C1c1ccc(-c2cn[nH]c2)cc1 (stereo partly drawn) [Example 121, (S)-3-{6,6-Dimethyl-4,4-dioxo-5-[4-(1H-pyrazol-4-yl)-phenyl]-5,6-dihydro-4H-4lambda6-[1,4,3]oxathiazin-2-ylamino}-3-(2-fluorophenyl)-propan-1-ol]
IC50: 8 nM

CC1(C)OC(N[C@@H](CCO)c2ccccc2F)=NS(=O)(=O)C1c1ccc(N2CCN(CCC(F)(F)F)CC2)cc1 (mixture of isomers) [Example 131, (S)-3-(6,6-Dimethyl-4,4-dioxo-5-{4-[4-(3,3,3-trifluoropropyl)-piperazin-1-yl]-phenyl}-5,6-dihydro-4H-4lambda6-[1,4,3]oxathiazin-2-ylamino)-3-(2-fluorophenyl)-propan-1-ol]
IC50: 17 nM

CC1(C)OC(N[C@@H](CCO)c2ccccc2)=NS(=O)(=O)C1(C)c1cccc(N2CCCC2)c1 (stereo partly drawn) [Compound 38, (S)-3-Phenyl-3-[5,6,6-trimethyl-4,4-dioxo-5-(3-pyrrolidin-1-ylphenyl)-5,6-dihydro-4H-4lambda6-[1,4,3]oxathiazin-2-ylamino]propan-1-ol]
IC50: 19 nM

CC1(C)OC(N[C@@H](CCO)c2ccccc2F)=NS(=O)(=O)C1(C)c1cccc(N2CCCC2)c1 (stereo partly drawn) [Compound 49, (S)-3-(2-Fluorophenyl)-3-[5,6,6-trimethyl-4,4-dioxo-5-(3-pyrrolidin-1-ylphenyl)-5,6-dihydro-4H-4lambda6-[1,4,3]oxathiazin-2-ylamino]propan-1-ol]
IC50: 24 nM

CC1(C)OC(N[C@@H](CCO)c2ccccc2F)=NS(=O)(=O)C1(C)c1ccccc1 (stereo partly drawn) [Compound 48, (S)-3-(2-Fluorophenyl)-3-(5,6,6-trimethyl-4,4-dioxo-5-phenyl-5,6-dihydro-4H-4lambda6-[1,4,3]oxathiazin-2-ylamino)propan-1-ol]
IC50: 5 nM

CC1(C)OC(N[C@@H](CCO)c2ccccc2F)=NS(=O)(=O)C1c1ccc(C2CCN(C3CC3)CC2)cc1 (stereo partly drawn) [Example 152, (S)-3-{5-[4-(1-Cyclopropyl-piperidin-4-yl)-phenyl]-6,6-dimethyl-4,4-dioxo-5,6-dihydro-4H-4lamda6-[1,4,3]oxathiazin-2-ylamino}-3-(2-fluorophenyl)-propan-1-ol]
IC50: 26 nM

CC1(C)OC(N[C@@H](CCO)c2cccc(Cl)c2)=NS(=O)(=O)C1c1ccc(-c2ccccc2)cc1 (stereo partly drawn) [Example 89, (S)-3-(5-Biphenyl-4-yl-6,6-dimethyl-4,4-dioxo-5,6-dihydro-4H-4lambda6-[1,4,3]oxathiazin-2-ylamino)-3-(3-chloro-phenyl)-propan-1-ol]
IC50: 21 nM

C[C@H](NC1=NS(=O)(=O)C(c2ccc(-c3cccc(C(N)=O)c3)nc2)C(C)(C)O1)c1ccccc1F (stereo partly drawn) [Example 180, 3-(5-{2-[(S)-1-(2-fluorophenyl)-ethylamino]-6,6-dimethyl-4,4-dioxo-5,6-dihydro-4H-41ambda6-[1,4,3]oxathiazin-5-yl}-pyridin-2-yl)-benzamide]
IC50: 10 nM

CN1CCN(CCc2ccc(C3C(C)(C)OC(N[C@@H](CCO)c4ccccc4F)=NS3(=O)=O)cc2)CC1 (stereo partly drawn) [Example 148, (S)-3-(6,6-Dimethyl-5-{4-[2-(4-methyl-piperazin-1-yl)-ethyl]-phenyl}-4,4-dioxo-5,6-dihydro-4H-4lambda6-[1,4,3]oxathiazin-2-ylamino)-3-(2-fluoro-phenyl)-propan-1-ol]
IC50: 144 nM

C[C@H](NC1=NS(=O)(=O)C(c2ccc(C(C)(C)C)cc2)C(C)(C)O1)c1ccccc1F (stereo partly drawn) [Compound 59, [5-(4-tert-Butylphenyl)-6,6-dimethyl-4,4-dioxo-5,6-dihydro-4H-4lambda6-[1,4,3]oxathiazin-2-yl]-[(S)-1-(2-fluorophenyl)ethyl]amine]
IC50: 55 nM
